The values that follow come from patent US8530477B2, “Tropane urea derivatives, preparation thereof and therapeutic application thereof as modulators of the activity of 11betaHSD1” (Sanofi, priority 2008, dated 2013).

Each structure is given as a SMILES string.

Assay [1] addresses T1, 11beta-HSD1 enzyme (Homo sapiens, UniProt P28845).
T1 construct: made in house; host or cells: Saccharomyces cerevisiae
Kind of assay: SPA (Scintillation Proximity Assay) of in vitro inhibitory activity on 11beta-HSD1, 384-well format. It counts as biochemical. To be noted: recombinant 11beta-HSD1 produced in yeast S. cerevisiae; 3H-cortisone, NADPH; cortisol formed; read-out: concentration which inhibits 50% of the activity of 11beta-HSD1 (IC50). The protocol: The compounds according to the invention were the subject of pharmacological assays for determining their inhibitory effect on the 11beta-HSD1 enzyme which is an enzyme involved in lipid metabolism or glucose metabolism.
These assays consisted in measuring the in vitro inhibitory activity of the compounds of the invention by means of an SPA (Scintillation Proximity Assay) in 384-well format. Recombinant 11beta-HSD1 protein was produced in the yeast S. cerevisiae. The reaction was carried out by incubating the enzyme in the presence of ^3H-cortisone and of NADPH, in the absence or presence of an increasing concentration of inhibitor. SPA beads coupled to an anti-mouse antibody, pre-incubated with an anti-cortisol antibody, made it possible to measure the amount of cortisol formed during the course of the reaction.
The inhibitory activity with respect to the 11beta-HSD1 enzyme is given by the concentration which inhibits 50% of the activity of 11beta-HSD1 (IC50).

In assay [2] the target is T2, 11βHSD1 (Homo sapiens, UniProt P28845). To be noted: slim volunteer patients and type 2 diabetics; cited from earlier work.
T2 sequence (P28845 whole entry): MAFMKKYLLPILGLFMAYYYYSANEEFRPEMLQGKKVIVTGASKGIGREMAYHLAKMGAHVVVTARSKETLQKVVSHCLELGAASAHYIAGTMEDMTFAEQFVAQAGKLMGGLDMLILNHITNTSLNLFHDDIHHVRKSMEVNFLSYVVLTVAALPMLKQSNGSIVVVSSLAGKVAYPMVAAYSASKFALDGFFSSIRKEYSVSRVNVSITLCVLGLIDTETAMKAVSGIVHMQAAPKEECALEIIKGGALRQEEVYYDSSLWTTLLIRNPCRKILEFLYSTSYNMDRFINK
The target of assay [3] is T3, 11βHSD1 in the eyes (Homo sapiens, UniProt P28845).
T3 construct: host or cells: healthy volunteers (in vivo, eye)
T3 sequence (P28845 whole entry): as above
To be noted: healthy volunteers; after seven days of treatment; cited from earlier work.

The target of assay [4] is T2, 11βHSD1. More on the design: host or cells: elderly human individuals (in vivo). To be noted: elderly individuals; cited from earlier work.
The target in assay [5] is T2, 11βHSD1. More on the design: host or cells: healthy volunteers (in vivo, bone). To be noted: healthy volunteers; cited from earlier work.

T1 sequence (P28845 whole entry, species assumed): as the sequence (P28845 whole entry) above

Regarding `CS(=O)(=O)N1CCN(c2ccc(OCC3CC4CCC(C3)N4C(=O)NC3C4CC5CC3CC(O)(C5)C4)cc2)CC1` (stereo not drawn) [Compound No. 17, endo-3-[4-(4-Methanesulfonylpiperazin-1-yl)phenoxymethyl]-8-azabicyclo-[3.2.1]octane-8-carboxylic acid (trans-5-hydroxyadamantan-2-yl)amide], the IC50 in assay [1] turned out to be 4 nM.
Take `CC1(C)[C@@H](OC(=O)CCC(=O)O)CC[C@]2(C)[C@H]3C(=O)C=C4[C@@H]5C[C@@](C)(C(=O)O)CC[C@]5(C)CC[C@@]4(C)[C@]3(C)CC[C@@H]12` [carbenoxolone]: the insulin sensitivity result in assay [2] is “improves insulin sensitivity”. In assay [3], the “IOP (intraocular pressure) reduced by” value was 18%. The “verbal fluidity and verbal memory” value in assay [4] was “improves verbal fluidity and verbal memory”. In assay [5], the bone formation markers result is reported as “without any change” and the bone resorption markers result was “decrease”.
As for `CS(=O)(=O)N1CCN(c2ccc(OC3CC4CCC(C3)N4C(=O)NC3C4CC5CC3CC(O)(C5)C4)cc2)CC1` (stereo not drawn) [compound 5, exo-3-[4-(4-Methanesulfonylpiperazin-1-yl)phenoxy]-8-azabicyclo-[3.2.1]octane-8-carboxylic acid (trans-5-hydroxyadamantan-2-yl)amide], the IC50 in assay [1] amounted to 10 nM.
